According to patent US12630538B2, “Anti-viral compounds” (Aligos Therapeutics, Inc., priority 2022, dated 2026):

Tests used:
[1] = target: T1, SARS-Cov-2 3CLpro (Severe acute respiratory syndrome coronavirus 2, UniProt P0DTD1); test: SARS-Cov-2 3CLpro and HRV3C duplex assay (SAMDI-MS): 3CLpro; type: biochemical; conditions: 30 mins preincubation
T1 construct: 3CLpro and HRV3C was added using a Multidrop Combi

[2] = target: T2, HRV3C (Human rhinovirus 14, UniProt P03303); test: SARS-Cov-2 3CLpro and HRV3C duplex assay (SAMDI-MS): HRV3C; type: biochemical; conditions: 30 mins preincubation, read-out: HRV (IC50)
T2 construct: 3CLpro and HRV3C was added using a Multidrop Combi

[3] = test system: human beta-coronavirus OC43; test: OC43 coronavirus antiviral assay in HeLa cells; type: cell-based; conditions: Betacoronavirus 1, 144 h, 6 days at 33° C., viral cytopathic effect, cell-titer-glo
Description: (§1) The human beta-coronavirus OC43 was purchased from ATCC (Manassas, VA) and propagated using HCT-8 human colorectal epithelial cells (ATCC). HeLa human cervical epithelial cells (ATCC) were used as susceptible host cell lines and were cultured using EMEM media, supplemented with 10% fetal bovine serum (FBS), 1% (v/v) penicillin/streptomycin (P/S), 1% (v/v) HEPES and 1% (v/v) cellgro Glutagro™ supplement (all Corning, Manassas, VA) at 37° C. For the OC43 antiviral assay, 1.5×10^4 HeLa cells per well were plated in 100 μL complete media in white 96-well plates with clear bottoms at 37° C. for up to 24 h to facilitate attachment and allow cells to recover from seeding stresses. Next day, the cell culture medium was removed. […] 100 μL of OC43 virus stock was diluted to a concentration known to produce optimal cytopathic effect, inducing 80-90% reduction in cell viability. 96-well plates were incubated for 6 (HeLa) days at 33° C.; each plate contains uninfected control wells as well as virus-infected wells that were not treated with compound. Cytotoxicity plates without the addition of OC43 virus were carried out in parallel. At the end of the incubation period, 100 μL cell culture supernatant was replaced with 100 μL cell-titer-glo reagent (Promega, Madison, WI) and incubated for at least 10 min at rt prior to measuring luminescence. Luminescence was measured on a Perkin Elmer (Waltham, MA) Envision plate reader. Antiviral % inhibition was calculated as follows: [(Compound treated cells infected sample)−(no compound infected control)]/[(Uninfected control)−(no compound infected control)]*100; Using GraphPad (San Diego, CA) prism software version 8.3.1, the antiviral dose-response plot was generated as a sigmoidal fit, log(inhibitor) vs response-variable slope (four parameters) model and the EC50 was calculated which is the predicted compound concentration corresponding to a 50% inhibition of the viral cytopathic effect.

[4] = Cytotoxicity in HeLa cells without OC43 virus; type: cell-based; conditions: human, cell-titer-glo
Description: as §1

[5] = test system: SARS-CoV-2 B.1.1.7 lineage; test: microbe, parasite or virus in culture; type: cell-based; conditions: Severe acute respiratory syndrome coronavirus 2, 96 h; read-out: A549-dual_ACE2_TMPRSS2 (EC50)
[6] = target: T3, human cathepsin L (Homo sapiens, UniProt P07711); test: Cathepsin L assay; type: biochemical; conditions: 10 pM human cathepsin L, substrate Z-FR-AMC 2 μM
T3 construct: purchased R&D Systems
Description: For the cathepsin L assay, 10 pM of human cathepsin L (R&D Systems; Minneapolis, MN) was preincubated for 30 mins with test compounds. Reactions were initiated by the addition of a peptide substrate Z-FR-AMC (final concentration 2 μM, Anaspec; Fremont, CA). Fluorescence was measured at 2-minute intervals for 30 mins using a 355/460 excitation/emission filter module on an Envision plate reader (Perkin Elmer; Waltham, MA). The IC50 values were calculated for each assay by fitting the curves using a four-parameter equation in GraphPad Prism.

[7] = in vitro; conditions: human, A549-dual ACE2 TMPRSS2 cells without virus
[8] = test system: SARS-CoV-2; conditions: cited from earlier work
[9] = target: 3CLpro (Severe acute respiratory syndrome coronavirus 2, UniProt P0DTD1); conditions: cited from earlier work

T2 sequence (P03303 1538-1719): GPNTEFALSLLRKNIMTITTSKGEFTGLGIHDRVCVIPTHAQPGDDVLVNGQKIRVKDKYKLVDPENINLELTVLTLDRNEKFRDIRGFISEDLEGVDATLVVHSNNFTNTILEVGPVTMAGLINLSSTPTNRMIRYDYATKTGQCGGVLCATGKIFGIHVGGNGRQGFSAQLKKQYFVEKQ
T3 sequence (P07711 114-333): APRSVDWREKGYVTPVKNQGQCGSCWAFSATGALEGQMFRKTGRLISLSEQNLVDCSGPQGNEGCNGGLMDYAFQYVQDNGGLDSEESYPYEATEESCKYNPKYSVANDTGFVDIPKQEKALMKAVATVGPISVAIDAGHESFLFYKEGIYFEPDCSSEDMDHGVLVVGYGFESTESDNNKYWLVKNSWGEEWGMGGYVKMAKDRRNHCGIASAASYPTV

## CC(C)(C)[C@H](NC(=O)OC1CC1)C(=O)N1C[C@@H]2[C@H]3C[C@@H]([C@@H]2[C@H]1C(=O)N[C@H](C#N)C[C@@H]1CCNC1=O)[C@H](F)C3 [Compound 3, cyclopropyl ((S)-1-((1S,3aR,4S,6R,7S,7aR)-1-(((S)-1-cyano-2-((S)-2-oxopyrrolidin-3-yl)ethyl)carbamoyl)-6-fluorooctahydro-2H-4,7-methanoisoindol-2-yl)-3,3-dimethyl-1-oxobutan-2-yl)carbamate]
[1]
  IC50: < 20 nM
[2]
  IC50: > 500 nM
[3]
  EC50: < 100 nM
[4]
  CC50 at 6 days: > 100000 nM
[5]
  EC50: < 100 nM
[6]
  IC50: ≥ 10000 nM
[7]
  CC50: > 1000 nM

## COC(=O)N[C@H](C(=O)N1C[C@@H]2[C@H]3C[C@@H]([C@@H]2[C@H]1C(=O)N[C@H](C#N)C[C@@H]1CCNC1=O)[C@H](F)C3)C(C)(C)C [Compound 2, methyl N-[(2S)-1-[(1S,2R,3S,6R,7S,9R)-3-{[(1S)-1-cyano-2-[(3S)-2-oxopyrrolidin-3-yl]ethyl]carbamoyl}-9-fluoro-4-azatricyclo[5.2.1.0^{2,6}]decan-4-yl]-3,3-dimethyl-1-oxobutan-2-yl]carbamate]
[1]
  IC50: < 20 nM
[2]
  IC50: > 500 nM
[3]
  EC50: < 100 nM
[4]
  CC50 at 6 days: > 100000 nM
[5]
  EC50: 100 to 1000 nM
[6]
  IC50: ≥ 10000 nM
[7]
  CC50: > 1000 nM

## COC(=O)N[C@H](C(=O)N1C[C@H]2[C@@H]([C@H]1C(=O)N[C@H](C#N)C[C@@H]1CCNC1=O)[C@H]1C=C[C@@H]2C1)C(C)(C)C [Compound 1, methyl ((S)-1-((1S,3aR,4S,7R,7aS)-1-(((S)-1-cyano-2-((S)-2-oxopyrrolidin-3-yl)ethyl)carbamoyl)-1,3,3a,4,7,7a-hexahydro-2H-4,7-methanoisoindol-2-yl)-3,3-dimethyl-1-oxobutan-2-yl)carbamate]
[1]
  IC50: < 20 nM
[2]
  IC50: > 500 nM
[3]
  EC50: < 100 nM
[4]
  CC50 at 6 days: > 100000 nM
[5]
  EC50: < 100 nM
[6]
  IC50: ≥ 10000 nM
[7]
  CC50: > 1000 nM

## CN1CCN(C(=O)N[C@@H](Cc2ccccc2)C(=O)N[C@H](/C=C/S(=O)(=O)c2ccccc2)CCc2ccccc2)CC1 [Compound K117777]
[8]; A549-ACE2 expressing TMPRSS2
  antiviral effect when TMPRSS2 was expressed: abolished
[8]; VeroE6, A549-ACE2 and/or HeLa-ACE2
  inhibition of SARS-CoV-2: potent inhibition
[9]
  inhibitory effect on the 3CLpro: lacks an inhibitory effect
